Laboratory results from US9902709B2, “Polysubstituted pyridine compound, preparation method, use and pharmaceutical composition” (PEKING UNIVERSITY FOUNDER GROUP CO., LTD., priority 2014, dated 2018).
pIC50: −log10 of the molar value.

Assays:
VEGFR2 = VEGFR2 (Homo sapiens (Human), UniProt P35968); experiment: Inhibitory activity of VEGFR2 kinase (HTRF KinEASE-TK kit); type: biochemical; conditions: ATP 5 μM, 20 minutes, room temperature
Method: HTRF®KinEASE™-TK kit (Cat.62TKOPEC, Cisbio);
VEGFR2 (Cat: k2643, Sigma);
2.1 Preparation of VEGFR2 Kinase Reagent
1× kinase buffer: 1 mL 1× kinase buffer contained 200 μL 5× kinase buffer (Invitrogen), 5 μL, 1M MgCl2, 1 μL 1M DTT, 1 μL 1M MnCl2, and 793 μL ddH2O;
5×TK substrate-biotin and ATP working fluid: as the concentrations of TK substrate-biotin and ATP, please refer to Table 1. TK substrate-biotin and ATP were diluted with 1× kinase buffer to 5 folds of the reaction concentrations;
5× kinase working fluid: as the concentration of VEGFR2 kinase, please refer to Table 1. 5× kinase working fluid was prepared with 1× Kinase buffer;
4× Sa-XL665 working fluid: as the concentration of Sa-XL665 (Cisbio) in the reaction, please refer to Table 1. The 4× Sa-XL665 working fluid was prepared with assay buffer (Cisbio);
4×TK Ab-cryptate working fluid: TK Ab-Cryptate (Cisbio) was 100-fold diluted with assay buffer (Cisbio), as working fluid;
Experimental Procedure of HTRF KinEASE TK Kit
After all the reagents were prepared as described above, the reagents except for enzymes were equilibrated to room temperature, then adding samples were performed.
TK substrate-biotin, ATP, VEGFR2 kinase and a compound at a certain concentration were reacted in 1× kinase buffer at room temperature for 20 minutes. […] To all the reaction wells, 5 μl 4× Sa-XL665 working fluid and 5 μl 4×TK Ab-cryptate working fluid were added. After reacting at room temperature for 1 hours, fluorescence signal (excited at 320 nm, emitted at 665 nm, 615 nm) was detected by ENVISION detector (Perkinelmer). Based on the full-active well and the background signal well, the inhibition rate for each well was calculated, and the average value was used for duplicate wells. The half maximal inhibitory concentration (IC50) for each test compound was fitted by professional software Graphpad PRISM 5.0.
2.3 Data Analysis Emission light ratio (ER)=665 nm emission signal/615 nm emission signal Inhibition rate=(ERpositive−ERsample)/(ERpositive−ERnegative)*100%
HTRF KinEASE TK kit was used to determine the IC50 value of a compound for kinase VEGFR2. The final concentration of the compound started from 100 μM, and 4-fold gradient dilution was carried out to provide 10 concentrations. Duplicate wells were used for each concentration. The final concentration of DMSO was controlled to 1% in the reaction system.

[1] = system: human renal cancer 786-O transplantation; experiment: Effect on tumor weight of human renal cancer 786-O transplantation nude mice (Comparative Experimental Example 1); type: in vivo; conditions: QD × 14 days
Source text: Comparative Experimental Example 1
The well grown 786-O solid tumor was cut into a mass of an average volume of about 1 mm^3 under aseptic conditions, and was used to inoculate nude mouse at axillary cavity of right forelimb subcutaneously via a trocar. The tumor growth state was observed regularly until the tumor grew into a volume of 250˜550 mm^3.
(§1) Animals with tumors of a too large or too small volume and an irregular shape were discarded. Tumor-bearing mice with a tumor volume of 250˜550 mm^3 in a good state were selected, 48 mice in total, and were divided into 6 groups, which were 1 solvent control group, 3 positive control groups, and 2 test sample groups. Both the positive control group and the test sample group were administered intragastrically once a day; the solvent control group was administered with 12.5% ethanol & 12.5% water solution of polyoxyethylene castor oil once a day; intragastrical volume was 10 mL/kg.
(§2) In the period of administration, tumor diameter was measured twice every week, tumor volume was calculated, and animal body weight was recorded. Animal state was observed when administered, and abnormal state was recorded.
Animal was sacrificed with CO2, and tumor was peeled off, weighed, and photographed. Animal was subjected to gross anatomy, and organs were observed by eyes to find if they were normal or not.
(§3) Observation Indexes: Tumor weight inhibiting rate (IR)=(WC−WT)/WC
Wherein WC and WT represented the average tumor weight of solvent control group and the average tumor weight of drug administration group, respectively.
Experimental data was subjected to calculation and relevant statistic processing by Microsoft Office Excel 2003 software. Unless otherwise specified, data was represented as Mean±Standard Error (Mean±S.E), and t-test is used in the comparison between two groups.

[2] = system: human colon cancer HCT-116 transplantation; experiment: Effect on tumor weight of human colon cancer HCT-116 transplantation nude mice (Comparative Experiment Example 2); type: in vivo; conditions: QD × 17 day
Source text: Comparative Experiment Example 2
Under aseptic conditions, the well grown human HCT-116 cell suspension in logarithmic growth phase was used to inoculate nude mouse at axillary cavity of right forelimb subcutaneously via an injector. The tumor growth state was observed regularly until the tumor grew to a volume of 100˜300 mm^3.
as §1, with “48” for “Animals with tumors of a too large or too small volume and an irregular shape were discarded.”, “100˜300” for “250˜550”, “mm^3” for “mm^3 in a good state”, “selected” for “selected, 48 mice in total,”, “and” for “and were”
as §2
Animal was sacrificed with CO2, and tumor mass was peeled off, weighed, and photographed. After photographed, each tumor mass was cut into two parts, wherein one was stored in 4% paraformaldehyde, and the other was packaged into a freezing tube, and frozen in liquid nitrogen. Animal was subjected to gross anatomy, and organs were observed by eyes to find if they were normal or not.
as §3
wherein WC and WT represented the average tumor weight of solvent control group and the average tumor weight of drug administration group, respectively.
Experimental data was subjected to calculation and relevant statistic processing by Microsoft Office Excel 2003 software. Unless otherwise specified, data was represented as Mean±Standard Error (Mean±S.E.), and t-test is used in the comparison between two groups.

Chain of VEGFR2 (P35968 20-1356): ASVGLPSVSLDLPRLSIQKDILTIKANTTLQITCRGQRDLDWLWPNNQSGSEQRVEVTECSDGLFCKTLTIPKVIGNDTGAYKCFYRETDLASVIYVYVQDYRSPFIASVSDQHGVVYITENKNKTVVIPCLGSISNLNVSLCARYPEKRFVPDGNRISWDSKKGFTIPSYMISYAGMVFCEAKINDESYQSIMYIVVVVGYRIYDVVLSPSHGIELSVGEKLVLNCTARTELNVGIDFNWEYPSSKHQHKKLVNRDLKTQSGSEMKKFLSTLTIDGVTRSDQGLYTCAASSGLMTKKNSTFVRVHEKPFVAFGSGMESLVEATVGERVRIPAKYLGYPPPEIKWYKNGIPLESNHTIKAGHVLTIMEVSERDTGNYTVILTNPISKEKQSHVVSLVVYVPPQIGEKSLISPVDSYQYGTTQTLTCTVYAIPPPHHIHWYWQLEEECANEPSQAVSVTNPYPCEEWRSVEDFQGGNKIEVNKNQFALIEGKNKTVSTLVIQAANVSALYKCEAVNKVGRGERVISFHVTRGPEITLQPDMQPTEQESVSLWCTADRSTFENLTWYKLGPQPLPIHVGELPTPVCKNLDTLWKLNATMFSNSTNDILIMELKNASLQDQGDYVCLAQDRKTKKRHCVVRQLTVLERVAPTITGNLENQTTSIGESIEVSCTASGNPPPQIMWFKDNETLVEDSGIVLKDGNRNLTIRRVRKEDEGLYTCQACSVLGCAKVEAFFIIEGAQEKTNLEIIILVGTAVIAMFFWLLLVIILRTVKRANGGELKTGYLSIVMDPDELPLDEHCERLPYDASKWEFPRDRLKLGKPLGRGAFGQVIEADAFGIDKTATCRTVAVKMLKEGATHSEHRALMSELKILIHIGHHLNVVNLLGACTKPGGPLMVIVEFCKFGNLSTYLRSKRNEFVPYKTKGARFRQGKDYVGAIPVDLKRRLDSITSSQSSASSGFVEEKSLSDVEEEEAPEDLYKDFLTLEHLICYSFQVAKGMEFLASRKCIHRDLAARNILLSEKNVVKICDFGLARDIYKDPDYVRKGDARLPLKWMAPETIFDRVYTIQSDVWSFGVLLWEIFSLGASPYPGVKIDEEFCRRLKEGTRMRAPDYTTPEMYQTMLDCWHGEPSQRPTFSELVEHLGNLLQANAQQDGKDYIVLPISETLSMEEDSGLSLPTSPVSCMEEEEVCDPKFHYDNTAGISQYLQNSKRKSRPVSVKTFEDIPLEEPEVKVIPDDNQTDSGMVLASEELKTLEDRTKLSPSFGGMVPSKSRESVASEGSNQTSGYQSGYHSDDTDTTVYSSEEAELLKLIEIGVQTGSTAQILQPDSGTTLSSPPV

pIC50 (VEGFR2) | Compound | Tumor weight Mean ± S.E ([1]; 20 mg/kg po, sorafenib as p-toluenesulfonate, FD-1210005 free form) [g] | Tumor-inhibiting rate ([1]; 20 mg/kg po, sorafenib as p-toluenesulfonate, FD-1210005 free form, listed as Comparative compound 2) [%] | Tumor-inhibiting rate ([1]; 20 mg/kg po, sorafenib as p-toluenesulfonate, FD-1210005 free form, listed as FD-1210005) [%] | Tumor weight Mean ± S.E ([1]; 60 mg/kg po, sorafenib as p-toluenesulfonate, FD-1210005 free form) [g] | Tumor-inhibiting rate ([1]; 60 mg/kg po, sorafenib as p-toluenesulfonate, FD-1210005 free form, listed as Comparative compound 2) [%] | Tumor-inhibiting rate ([1]; 60 mg/kg po, sorafenib as p-toluenesulfonate, FD-1210005 free form, listed as FD-1210005) [%] | Tumor weight Mean ± S.E ([2]; 20 mg/kg Ig, sorafenib as p-toluenesulfonate, FD-1210005 free form) [g] | Tumor-inhibiting rate ([2]; 20 mg/kg Ig, sorafenib as p-toluenesulfonate, FD-1210005 free form, listed as Comparative compound 2) [%] | Tumor-inhibiting rate ([2]; 20 mg/kg Ig, sorafenib as p-toluenesulfonate, FD-1210005 free form, listed as FD-1210005) [%] | Tumor weight Mean ± S.E ([2]; 60 mg/kg Ig, sorafenib as p-toluenesulfonate, FD-1210005 free form) [g] | Tumor-inhibiting rate ([2]; 60 mg/kg Ig, sorafenib as p-toluenesulfonate, FD-1210005 free form, listed as Comparative compound 2) [%] | Tumor-inhibiting rate ([2]; 60 mg/kg Ig, sorafenib as p-toluenesulfonate, FD-1210005 free form, listed as FD-1210005) [%] | Tumor weight Mean ± S.E ([1]; 40 mg/kg po) [g] | Tumor-inhibiting rate ([1]; 40 mg/kg po) [%] | Tumor weight Mean ± S.E ([2]; 40 mg/kg Ig) [g] | Tumor-inhibiting rate ([2]; 40 mg/kg Ig) [%]
6.73 | Cn1cc(-c2cc(Oc3ccc(NC(=O)Nc4ccc(Cl)c(C(F)(F)F)c4)cc3)ccn2)cn1 [Comparative example 2, 1-(4-chloro-3-(trifluoromethyl)phenyl)-3-(4-(2-(1-methyl-pyrazol-4-yl)-pyridin-4-yl-oxy)phenyl)urea] | 0.1892 ± 0.0253 | 80 | 79.78 | 0.1897 ± 0.0192 | 80 | 79.73 | 0.3283 ± 0.0404 | 67 | 66.91 | 0.2829 ± 0.0309 | 71 | 71.49 | – | – | – | –
– | CCN(CC)CCNC(=O)c1c(C)[nH]c(/C=C2\C(=O)Nc3ccc(F)cc32)c1C [Sunitinib] | – | – | – | – | – | – | – | – | – | – | – | – | 0.1825 ± 0.0213 | 80.49 | 0.3890 ± 0.0453 | 60.80
